Source: patent US4443475A, “Amides of acyl-carnitines, process for preparing same and pharmaceutical compositions containing such amides” (priority 1979, dated 1984)
Like-named read-outs stand apart in the source and are kept apart here.

Experiments:
[1] = Effect antagonizing adrenaline (mortality); type: in vivo; settings: Mus musculus, ip, mice, 36 hours, read-out: Antiadrenaline Effects, % mortality reduction; for responders at 100 mg/kg: 100 mg/kg i.p.; for responders at 50 mg/kg: 50 mg/kg i.p.; for responders at 70 mg/kg: 70 mg/kg i.p.; for responders at 300 mg/kg: 300 mg/kg i.p.
Protocol: (d) Effect antagonizing adrenaline
Male Albino Swiss mice weighing 12-22 g, divided into groups of 10, were treated with the compounds under investigation or with saline (controls) i.p. and then 30 minutes later with adrenaline (treated) at a dose capable of causing death in 100% of the control animals due to ventricular fibrillation and cardiac lesions ensuing from increased heart rate, pressure and oxygen consumption by the myocardium.
Mortality was monitored for 36 hours and the effect of the compounds was expressed in % of survivals versus treated animals.

[2] = Antagonism to cardiazol (protection from death by convulsions); type: in vivo; settings: ip, rat, 5 hours; for responders at 100 mg/kg: 100 mg/kg i.p. (head); for responders at 150 mg/kg: 150 mg/kg i.p. (head); for responders at 50 mg/kg: 50 mg/kg i.p. (head)
[3] = Anti-arrhythmic (antifibrillation) effect, aconitine-induced arrhythmia; type: in vivo, mice; settings: Mus musculus, ip, read-out: Antifibrillation Effects, % reduction
Protocol: (c) Anti-arrhythmic effect
In order to evaluate by means of in vivo test the anti-arrhythmic effect exerted by the various carnitine derivatives in addition to and versus the usual in vitro tests, the method described by Nwangwu et al. (Arch. Int. Pharmacodyn., 1977, v. 229, 219) was employed.
This method is carried out by injecting a solution of aconitine into the caudal […] and recording the time of the appearance of arrhythmia and tachycardia from 2 to 60 minutes following the administration of the compounds under investigation.

[4] = Acute toxicity (LD50), Weil method; settings: mouse, in vivo, mice (Table I title)
[5] = Interaction with barbiturates (EVIPAN, loss of righting reflex); type: in vivo; settings: Mus musculus, ip, mice, EVIPAN 75 mg/kg, read-out: Barbituric interaction, % reduction of RR (righting reflex) loss; for inhibition in vivo at 50 mg/kg: 50 mg/kg i.p. (head); for inhibition in vivo at 100 mg/kg: 100 mg/kg i.p. (head)
[6] = Effect on spontaneous motility (ANIMEX); type: in vivo; settings: Mus musculus, ip, 0.5 h, mice, control 850 ± 65 in 30 min, read-out: Spontaneous motility, % increase versus controls; for change in vivo at 25 mg/kg: 25 mg/kg i.p.; for change in vivo at 50 mg/kg: 50 mg/kg i.p.
Protocol: (g) Effect on spontaneous motility
Male Albino Swiss mice weighing 18-22 g, were divided into two groups of 5 and caged for at least 1 week. One group received the compounds under investigation and the other group (control group) was given the vehicle. The animals remained in their cages and were placed on the ANIMEX (Farad-Sweden) apparatus which recorded the movements for two 30-minute intervals beginning from 5 minutes after administration of the compounds.
Table II gives the results expressed as percentage variation in the number of spontaneous movements of the treated animals versus those of the control animals.

isolated rabbit heart = experiment: Inotropic effect on isolated rabbit heart (Langendorff) after anoxia; settings: Oryctolagus cuniculus, 10 min; 10^-5 gl^-1, isolated rabbit heart, 10 minutes after end of anoxia; read-out: Inotropic Effect, % of controls (increased percentage versus controls)
Protocol: Rabbit hearts isolated by Langendorff's method were perfused in a Ringer solution oxygenated at 38.2° C. The isometric […], ECG and coronary flow were recorded using a "Battaglia-Rangoni" polygraph.
Metabolic damage in the heart muscle was induced by removing the oxygen from the perfusion liquid until contractile force was reduced by 80%.
In these conditions of prolonged anoxia myocardial […] glycolysis was slowed down, accompanied by accumulation of catabolic acids due to storage of pyruvic acid and its conversion to lactic acid which cannot be utilized owing to the depression of the pyridinic enzymes, such as lacticodehydrogenase. This affects anaerobic glycolysis involving an ever increasing number of enzymes, with a progressive and increasingly more critical exhaustion of the myocardium.
Thus there is a whole series of cardiac muscle fatigue levels recorded by the pattern of the parameters taken into account i.e. contractile force, coronary output, heart rate and cardiac rhythm. As soon as the contractile force was reduced by 80%, the perfusion liquid was once again oxygenated without adding other compounds (controls) or with the addition of the compounds under investigation at various concentrations.

Row | SMILES | LD50 ([4]; ip, read-out: LD50 i.p.) | LD50 ([4]; oral, read-out: LD50 oral) | change in vivo at 25 mg/kg [6] | activation at 0.01 µg/mL (isolated rabbit heart) | inhibition in vivo at 50 mg/kg [3] | inhibition in vivo at 50 mg/kg [5] | change in vivo at 50 mg/kg [6] | responders at 50 mg/kg [2] | inhibition in vivo at 100 mg/kg [5] | other results
1 | CCC(C)C(NC(=O)CC(C[N+](C)(C)C)OC(C)=O)C(=O)OC (stereo not drawn) | 500 mg/kg | 1200 mg/kg | 34% | 45% |  |  |  |  |  | responders at 100 mg/kg [1]: 50%; responders at 100 mg/kg [2]: 53%; inhibition in vivo at 40 mg/kg [3]: 65%; inhibition in vivo at 40 mg/kg ([5]; 40 mg/kg i.p. (head)): 35%
2 | COC(=O)C(NC(=O)CC(C[N+](C)(C)C)OC(C)=O)C(C)C (stereo not drawn) | 600 mg/kg | 2400 mg/kg |  | 70% | 100% | 40% |  |  |  | responders at 50 mg/kg [1]: 80%; responders at 100 mg/kg [2]: 84%; change in vivo at 35 mg/kg ([6]; 35 mg/kg i.p.): 50%
3 | COC(=O)C(CC(C)C)NC(=O)CC(C[N+](C)(C)C)OC(C)=O (stereo not drawn) | 1000 mg/kg | 3500 mg/kg | 28% | 45% | 70% | 35% |  |  |  | responders at 50 mg/kg [1]: 75%; responders at 150 mg/kg [2]: 60%
4 | CCOC(=O)CC(O)CNC(=O)CC(C[N+](C)(C)C)OC(C)=O (stereo not drawn) | 450 mg/kg | 1300 mg/kg |  | 53% | 65% | 25% | 30% |  |  | responders at 70 mg/kg [1]: 60%; responders at 150 mg/kg [2]: 70%
5 | CCC(=O)OC(CC(=O)NC(C(=O)OC)C(C)CC)C[N+](C)(C)C (stereo not drawn) | 750 mg/kg | 2500 mg/kg |  | 65% | 65% |  |  | 39% | 27% | responders at 100 mg/kg [1]: 50%; change in vivo at 100 mg/kg ([6]; 100 mg/kg i.p.): 35%
6 | CCC(=O)OC(CC(=O)NC(C(=O)OC)C(C)C)C[N+](C)(C)C (stereo not drawn) | 500 mg/kg | 1350 mg/kg | 75% | 65% |  | 58% |  |  |  | responders at 50 mg/kg [1]: 40%; responders at 35 mg/kg ([2]; 35 mg/kg i.p. (head)): 38%; inhibition in vivo at 35 mg/kg [3]: 60%
7 | CCC(=O)OC(CC(=O)NC(CC(=O)OC)C(=O)OC)C[N+](C)(C)C (stereo not drawn) | 590 mg/kg | 1800 mg/kg | 59% | 50% |  |  |  |  | 25% | responders at 100 mg/kg [1]: 70%; responders at 40 mg/kg ([2]; 40 mg/kg i.p. (head)): 51%; inhibition in vivo at 40 mg/kg [3]: 70%
8 | CCC(=O)OC(CC(=O)NC(CCC(=O)OC)C(=O)OC)C[N+](C)(C)C (stereo not drawn) | 400 mg/kg | 1200 mg/kg |  | 45% |  | 50% | 25% | 47% |  | responders at 70 mg/kg [1]: 40%; inhibition in vivo at 10 mg/kg [3]: 60%
9 | CC(=O)OC(CC(=O)NCCS(=O)(=O)[O-])C[N+](C)(C)C (stereo not drawn) [COCH3; 2-sulfonyl ethyl amino, acetyl carnitine amide with taurine] | 1500 mg/kg | 4000 mg/kg |  | 62% |  |  | 25% |  | 30% | responders at 450 mg/kg ([1]; 450 mg/kg i.p.): 65%; responders at 150 mg/kg [2]: 65%; inhibition in vivo at 300 mg/kg [3]: 70%
10 | COC(=O)CC(NC(=O)CC(C[N+](C)(C)C)OC(C)=O)C(=O)OC (stereo not drawn) [COCH3; (1,2-dicarbomethoxy ethyl) amino] | 1500 mg/kg | 4200 mg/kg |  | 48% |  |  | 60% | 75% |  | responders at 300 mg/kg [1]: 55%; inhibition in vivo at 75 mg/kg [3]: 80%
11 | COC(=O)CCC(NC(=O)CC(C[N+](C)(C)C)OC(C)=O)C(=O)OC (stereo not drawn) [COCH3; (1,3-dicarbomethoxy propyl) amino] | 1000 mg/kg | 3600 mg/kg | 19% | 40% |  |  |  | 70% |  | responders at 150 mg/kg ([1]; 150 mg/kg i.p.): 40%; inhibition in vivo at 20 mg/kg [3]: 65%; inhibition in vivo at 20 mg/kg ([5]; 20 mg/kg i.p. (head)): 40%
12 | CCC(=O)OC(CC(=O)NCCS(=O)(=O)[O-])C[N+](C)(C)C (stereo not drawn) [OCOCH2 CH3; 2-sulfonyl ethyl amino] | 1500 mg/kg | 4000 mg/kg |  | 50% |  |  | 40% |  | 60% | responders at 300 mg/kg [1]: 70%; responders at 150 mg/kg [2]: 40%; inhibition in vivo at 150 mg/kg [3]: 95%
13 | CCCC(=O)OC(CC(=O)NCCS(=O)(=O)[O-])C[N+](C)(C)C (stereo not drawn) [OCOCH2CH2CH3; 2-sulfonyl ethyl amino] | 1500 mg/kg | 4000 mg/kg |  | 40% | 60% | 70% | 43% | 58% |  | responders at 300 mg/kg [1]: 50%
14 | CCC(=O)OC(CC(=O)NC(CC(C)C)C(=O)OC)C[N+](C)(C)C (stereo not drawn) [propionyl carnitine amide of leucine methyl ester] | 600 mg/kg | 2350 mg/kg |  | 45% | 75% |  | 62% | 32% | 31% | responders at 100 mg/kg [1]: 70%
